Cc1nc(-c2ccc(OCC(C)C)c(C#N)c2)sc1C(=O)O
solubility (mole fraction)
Settings	293.15 K	298.15 K	303.15 K	308.15 K	313.15 K	318.15 K	323.15 K	328.15 K
in acetone	0.00623	0.00743	0.00921	0.0107	0.0129	0.0147	0.0162	0.0171
in ethanol	0.00122	0.00177	0.00269	0.00401	0.00584	0.00836	0.0109	0.0143
in ethyl acetate	0.00376	0.00456	0.00516	0.00643	0.00732	0.00828	0.00975	0.0114
in methanol	0.000524	0.000856	0.00117	0.00162	0.00229	0.00325	0.0045	0.00685
